Tests used:
Assay in all cases: relative viability (nuclei count vs DMSO), 5 days (fraction); higher = more cells survive
TPCA-1 + OSI-027 = compound: C1=CC(=CC=C1C2=CC(=C(S2)NC(=O)N)C(=O)N)F [TPCA-1] + COc1cccc2cc(-c3nc([C@H]4CC[C@H](C(=O)O)CC4)n4ncnc(N)c34)[nH]c12 [OSI-027] (partner 0.5 µM)
Outline: (§1)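 After 5 days of treatment, lung cancer cells in 1536-well plates were fixed and stained in a single step (final 0.05% Triton X-100, 1% formaldehyde, 1 ug/ml Hoechst) and their nuclei counted on 4× images. Treatment had been applied by pin tool the day after seeding as one drug alone or as a fixed anchor-drug dose with five library-drug doses (not always all listed) in √10 steps. Relative viability is the nuclei count of treated wells divided by that of vehicle wells, and values are medians of duplicate plates.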

Lestaurtinib + Foretinib = compound: C[C@]12O[C@H](C[C@]1(O)CO)n1c3ccccc3c3c4c(c5c6ccccc6n2c5c31)CNC4=O [Lestaurtinib] + COc1cc2c(Oc3ccc(NC(=O)C4(C(=O)Nc5ccc(F)cc5)CC4)cc3F)ccnc2cc1OCCCN1CCOCC1 [Foretinib] (partner 0.25 µM)
Outline: as §1

[1] = compound: C[C@]12O[C@H](C[C@]1(O)CO)n1c3ccccc3c3c4c(c5c6ccccc6n2c5c31)CNC4=O [Lestaurtinib] + CC(=O)c1c(C)c2cnc(Nc3ccc(N4CCNCC4)cn3)nc2n(C2CCCC2)c1=O [Palbociclib] (partner 0.5 µM)
Outline: as §1

[2] = compound: C[C@]12O[C@H](C[C@]1(O)CO)n1c3ccccc3c3c4c(c5c6ccccc6n2c5c31)CNC4=O [Lestaurtinib] + CS(=O)(=O)N1CCN(Cc2cc3nc(-c4cccc5[nH]ncc45)nc(N4CCOCC4)c3s2)CC1 [Pictilisib] (partner 1 µM)
Outline: as §1

Row | Cell Line | relative viability (TPCA-1 + OSI-027; first compound 0.04 µM) | relative viability (TPCA-1 + OSI-027; first compound 0.1265 µM) | relative viability (TPCA-1 + OSI-027; first compound 0.4 µM) | relative viability (TPCA-1 + OSI-027; first compound 1.265 µM) | relative viability (TPCA-1 + OSI-027; first compound 4 µM) | relative viability (Lestaurtinib + Foretinib; first compound 0.005 µM) | relative viability (Lestaurtinib + Foretinib; first compound 0.01581 µM) | relative viability (Lestaurtinib + Foretinib; first compound 0.05 µM) | relative viability (Lestaurtinib + Foretinib; first compound 0.1581 µM) | relative viability (Lestaurtinib + Foretinib; first compound 0.5 µM) | relative viability ([1]; first compound 0.005 µM) | relative viability ([1]; first compound 0.01581 µM) | relative viability ([1]; first compound 0.05 µM) | relative viability ([1]; first compound 0.1581 µM) | relative viability ([1]; first compound 0.5 µM) | relative viability ([2]; first compound 0.005 µM) | relative viability ([2]; first compound 0.01581 µM) | relative viability ([2]; first compound 0.05 µM) | relative viability ([2]; first compound 0.1581 µM) | relative viability ([2]; first compound 0.5 µM)
1 | LU99A | 0.325 | 0.297 | 0.322 | 0.232 | 0.258 | 0.733 | 0.73 | 0.575 | 0.469 | 0.247 | 0.371 | 0.392 | 0.285 | 0.271 | 0.185 | 0.298 | 0.312 | 0.253 | 0.205 | 0.179
2 | LXF-289 | 0.86 | 0.674 | 0.763 | 0.603 | 0.347 | 1.02 | 1.04 | 0.827 | 0.905 | 0.198 | 0.624 | 0.633 | 0.443 | 0.49 | 0.234 | 0.715 | 0.756 | 0.475 | 0.523 | 0.247
3 | NCI-H23 | 0.599 | 0.574 | 0.514 | 0.429 | 0.149 | 1.02 | 1.22 | 0.837 | 0.635 | 0.321 | 0.578 | 0.624 | 0.527 | 0.5 | 0.274 | 0.5 | 0.468 | 0.353 | 0.375 | 0.204
4 | NCI-H322M | 0.567 | 0.534 | 0.564 | 0.581 | 0.382 | 0.935 | 1.02 | 0.523 | 0.609 | 0.45 | 0.473 | 0.497 |  | 0.515 | 0.519 | 0.493 | 0.5 | 0.445 | 0.443 | 0.401
5 | NCI-H358 | 0.808 | 0.657 | 0.816 | 0.52 | 0.226 | 0.621 | 0.436 | 0.358 | 0.201 | 0.108 | 0.132 | 0.131 | 0.14 | 0.111 | 0.108 | 0.346 | 0.28 | 0.28 | 0.221 | 0.181
6 | NCI-H441 | 0.841 | 0.443 | 0.511 | 0.302 | 0.201 | 1.07 | 1.02 | 0.795 | 0.933 | 0.277 | 0.192 | 0.238 | 0.225 | 0.199 | 0.207 | 0.346 | 0.342 | 0.215 | 0.299 | 0.171
7 | NCI-H460 | 0.794 | 0.642 | 0.631 | 0.584 | 0.137 | 0.96 | 1.11 | 0.951 | 1.28 | 0.9 | 0.151 | 0.231 | 0.112 | 0.116 | 0.116 | 0.315 | 0.392 | 0.298 | 0.224 | 0.201
8 | NCI-H520 | 0.302 | 0.234 | 0.19 | 0.231 | 0.243 | 0.713 | 0.992 | 0.698 | 0.342 | 0.228 | 0.262 | 0.234 | 0.201 | 0.171 | 0.158 | 0.279 | 0.319 | 0.211 | 0.228 | 0.18
9 | NCI-H647 | 0.633 | 0.573 | 0.602 | 0.55 | 0.245 | 1.41 | 1.15 | 0.705 | 0.478 | 0.16 | 0.382 | 0.201 | 0.227 | 0.247 | 0.164 | 0.413 | 0.289 | 0.197 | 0.193 | 0.105
10 | NCI-H650 | 0.533 | 0.498 | 0.617 | 0.286 | 0.374 | 1.04 | 1.17 | 0.839 | 0.689 | 0.584 | 0.315 | 0.323 | 0.249 | 0.236 | 0.229 | 0.816 | 0.818 | 0.63 | 0.399 | 0.332
11 | NCI-H661 | 0.734 | 0.665 | 0.749 | 0.607 | 0.39 | 1.02 | 0.935 | 1.02 | 0.933 | 0.421 | 0.423 | 0.413 | 0.445 | 0.467 | 0.317 | 0.35 | 0.461 | 0.411 | 0.352 | 0.336
12 | NCI-H727 | 0.603 | 0.43 | 0.664 | 0.369 | 0.541 | 1.05 | 0.991 | 1.05 | 0.756 | 0.33 | 0.723 | 0.713 | 0.719 |  | 0.716 | 0.396 | 0.566 | 0.278 | 0.409 | 0.229
13 | NCI-H838 | 0.427 | 0.353 | 0.391 | 0.389 | 0.299 | 1.12 | 1.04 | 0.869 | 0.519 | 0.26 | 0.209 | 0.204 | 0.196 | 0.194 | 0.147 | 0.492 | 0.479 | 0.378 | 0.309 | 0.169
14 | NCI-H1355 | 0.466 | 0.365 | 0.414 | 0.313 | 0.234 | 1.03 | 1.08 | 0.696 | 0.802 | 0.356 | 0.455 | 0.403 | 0.332 | 0.273 | 0.254 | 0.412 | 0.363 | 0.314 | 0.389 | 0.273
15 | NCI-H1395 | 0.745 | 0.631 | 0.738 | 0.585 | 0.592 | 1.01 | 0.911 | 0.861 | 0.824 | 0.479 | 0.646 | 0.617 | 0.547 | 0.573 | 0.477 | 0.597 | 0.542 | 0.536 | 0.463 | 0.405
16 | NCI-H1437 | 0.888 | 0.89 | 0.908 | 0.921 | 0.652 | 1.35 | 1.4 | 1.29 | 1.17 | 1.07 | 0.35 | 0.371 | 0.369 | 0.364 | 0.415 | 0.466 | 0.491 | 0.375 | 0.245 | 0.14
17 | NCI-H1650 | 0.639 |  | 0.682 | 0.798 | 0.531 | 1.03 | 1.24 | 1.37 | 1.26 | 0.694 | 0.353 | 0.433 | 0.356 | 0.396 | 0.245 | 0.594 | 0.662 | 0.566 | 0.463 | 0.153
18 | NCI-H1651 | 0.756 | 0.612 | 0.648 | 0.741 | 0.544 | 0.85 | 0.8 | 0.844 | 0.865 | 0.53 | 0.536 | 0.594 | 0.551 | 0.569 | 0.497 | 0.59 | 0.736 | 0.309 | 0.542 | 0.286
19 | NCI-H1666 | 0.856 | 0.788 | 0.851 | 0.883 | 0.865 | 1.1 | 1.07 | 1.6 | 1.02 | 0.595 | 0.705 | 0.704 | 0.638 | 0.74 | 0.646 | 0.46 | 0.486 | 0.39 | 0.358 | 0.388
20 | NCI-H1734 | 0.822 | 0.477 | 0.656 | 0.745 | 0.33 | 0.891 | 0.951 | 0.705 | 0.383 | 0.179 | 0.352 | 0.255 | 0.338 | 0.331 | 0.197 | 0.444 | 0.399 | 0.316 | 0.251 | 0.196
21 | NCI-H1755 | 0.755 | 0.621 | 0.804 | 0.539 | 0.496 | 0.891 | 0.938 | 0.788 | 0.494 | 0.412 | 0.446 | 0.427 | 0.464 | 0.376 | 0.382 | 0.444 | 0.492 | 0.211 | 0.269 | 0.175
22 | NCI-H1793 | 0.233 |  | 0.275 | 0.285 | 0.139 | 0.684 | 0.702 | 0.436 | 0.574 | 0.39 | 0.333 | 0.36 | 0.324 | 0.335 | 0.26 | 0.319 | 0.224 | 0.235 | 0.34 | 0.263
23 | NCI-H1915 | 0.695 | 0.563 | 0.676 | 0.509 | 0.467 | 1.14 | 1.21 | 0.869 | 0.762 | 0.287 | 0.564 | 0.719 | 0.481 | 0.323 | 0.231 | 0.945 | 0.966 | 0.654 | 0.418 | 0.282
24 | NCI-H1944 | 0.482 | 0.398 | 0.416 | 0.368 | 0.318 | 0.909 | 0.848 | 0.698 | 0.652 | 0.366 | 0.334 | 0.332 | 0.286 | 0.248 | 0.292 | 0.352 | 0.313 | 0.313 | 0.305 | 0.248
25 | NCI-H1975 | 0.836 | 0.737 | 0.676 | 0.633 | 0.295 | 1.09 | 0.99 | 0.927 | 0.731 | 0.538 | 0.617 | 0.632 | 0.406 | 0.347 | 0.25 | 0.275 | 0.252 | 0.205 | 0.217 | 0.171
26 | NCI-H1993 | 0.544 | 0.524 | 0.521 | 0.536 | 0.556 | 0.791 | 0.771 | 0.77 | 0.63 | 0.535 | 0.689 | 0.27 | 0.717 | 0.569 | 0.411 | 0.802 | 0.724 | 0.69 | 0.716 | 0.663
27 | NCI-H2009 | 0.773 | 0.647 | 0.623 | 0.406 | 0.327 | 1.24 | 1.3 | 1.17 | 1.09 | 0.751 | 0.221 | 0.226 | 0.183 | 0.194 | 0.133 | 0.795 | 0.691 | 0.43 | 0.54 | 0.149
